The values below come from ChEMBL document CHEMBL4138181, “Synthesis, molecular docking, and QSAR study of sulfonamide-based indoles as aromatase inhibitors” (Eur J Med Chem, 2018).

The target in series [1] is T1, Aromatase (Homo sapiens, UniProt P11511).
T1 sequence (P11511 whole entry): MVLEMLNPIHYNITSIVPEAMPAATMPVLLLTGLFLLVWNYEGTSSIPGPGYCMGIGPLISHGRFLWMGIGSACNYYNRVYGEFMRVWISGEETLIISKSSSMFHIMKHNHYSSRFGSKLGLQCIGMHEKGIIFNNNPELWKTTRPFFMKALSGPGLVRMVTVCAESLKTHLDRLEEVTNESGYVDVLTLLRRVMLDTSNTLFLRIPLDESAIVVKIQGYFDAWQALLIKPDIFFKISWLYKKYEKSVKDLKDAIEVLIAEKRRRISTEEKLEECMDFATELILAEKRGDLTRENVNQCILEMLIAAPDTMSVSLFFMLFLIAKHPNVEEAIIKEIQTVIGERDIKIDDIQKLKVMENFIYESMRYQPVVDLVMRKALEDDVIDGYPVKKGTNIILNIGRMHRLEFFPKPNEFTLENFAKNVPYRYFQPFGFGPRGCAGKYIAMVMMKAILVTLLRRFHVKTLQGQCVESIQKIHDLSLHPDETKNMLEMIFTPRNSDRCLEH
The series can be described thus: Inhibition of aromatase (unknown origin) using O-benzyl fluorescein benzyl ester as substrate in presence of NADPH-generating system by fluorescence assay.

The next series deals with Vero. The series can be described thus: Cytotoxicity against GFP-expressing African green monkey Vero cells after 4 days by fluorescence assay. Conditions: Chlorocebus sabaeus, 96 h. It is filed as cell-based.
Series [2] deals with aromatase. The series can be described thus: Selectivity index, ratio of IC50 for GFP-expressing African green monkey Vero cells to IC50 for aromatase (unknown origin). It is filed as toxicity. Conditions: read-out: Ratio IC50.

Molecules are shown by their SMILES. pIC50: −log10 of the molar value.

As usually defined, the pIC50 is the negative decadic logarithm of the IC50, by convention in mol/L. A word on the IC50: it is the midpoint of a concentration-inhibition curve. As for `O=[N+]([O-])c1ccc(C(c2[nH]c3ccccc3c2CCNS(=O)(=O)c2ccc(F)cc2)c2[nH]c3ccccc3c2CCNS(=O)(=O)c2ccc(F)cc2)cc1`, the pIC50 at Aromatase [1] was 5.46. The molecule also had an IC50 in the series with Vero of more than 50 µg/mL. Moreover, in the series on aromatase [2], the selectivity ratio is more than 18.6.
Taken in the same sequence, the figures for `COc1ccc(S(=O)(=O)NCCc2c(C(c3ccccc3O)c3[nH]c4ccccc4c3CCNS(=O)(=O)c3ccc(OC)cc3)[nH]c3ccccc23)cc1` were 6.10, more than 50 µg/mL and more than 81.7.
Taken in the same sequence, the figures for `O=[N+]([O-])c1ccc(S(=O)(=O)NCCc2c(C(c3ccccc3O)c3[nH]c4ccccc4c3CCNS(=O)(=O)c3ccc([N+](=O)[O-])cc3)[nH]c3ccccc23)cc1` were 5.55, more than 50 µg/mL and more than 22.5.
As to `O=[N+]([O-])c1cccc(S(=O)(=O)NCCc2c(C(c3ccccc3O)c3[nH]c4ccccc4c3CCNS(=O)(=O)c3cccc([N+](=O)[O-])c3)[nH]c3ccccc23)c1`, on Aromatase [1], the pIC50 is 5.77. The molecule also registered an IC50 in the series with Vero of more than 50 µg/mL. Besides, the selectivity ratio with aromatase [2] is more than 37.
Taken in the same sequence, the figures for `Cc1ccc(S(=O)(=O)NCCc2c(C(c3ccccc3)c3[nH]c4ccccc4c3CCNS(=O)(=O)c3ccc(C)cc3)[nH]c3ccccc23)cc1` were 4.92, more than 50 µg/mL and more than 5.86.
As to `COc1ccc(S(=O)(=O)NCCc2c(C(c3ccc(O)cc3)c3[nH]c4ccccc4c3CCNS(=O)(=O)c3ccc(OC)cc3)[nH]c3ccccc23)cc1`, the negative-log IC50 (pIC50) at Aromatase [1] is 6.15. For the same molecule, in the series on Vero, the IC50 is more than 50 µg/mL. In the series on aromatase [2], the selectivity ratio was more than 93.4.
With `COc1ccc(S(=O)(=O)NCCc2c(C3(c4[nH]c5ccccc5c4CCNS(=O)(=O)c4ccc(OC)cc4)C(=O)Nc4ccccc43)[nH]c3ccccc23)cc1`, at Aromatase [1], the pIC50 was 5.55. This molecule registered an IC50 in the series with Vero of more than 50 µg/mL. For the same molecule, the selectivity ratio in the series on aromatase [2] is more than 22.6.
As to `O=S(=O)(NCCc1c(C(c2ccc(C(F)(F)F)cc2)c2[nH]c3ccccc3c2CCNS(=O)(=O)c2ccc(Cl)cc2)[nH]c2ccccc12)c1ccc(Cl)cc1`, the negative logarithm of the IC50 (pIC50) on Aromatase [1] is 5.49; in the series on Vero, 4.79. For the same molecule, in the series with aromatase [2], the selectivity ratio came out at 5.06.
In the case of `O=C1Nc2ccccc2C1(c1[nH]c2ccccc2c1CCNS(=O)(=O)c1ccc(Cl)cc1)c1[nH]c2ccccc2c1CCNS(=O)(=O)c1ccc(Cl)cc1`, the pIC50 at Aromatase [1] is 5.08. The 50% inhibitory concentration (IC50) in the series with Vero is more than 50 µg/mL. The selectivity ratio in the series on aromatase [2] is more than 7.54.
Taken in the same sequence, the figures for `O=[N+]([O-])c1ccc(S(=O)(=O)NCCc2c(C(c3ccccc3)c3[nH]c4ccccc4c3CCNS(=O)(=O)c3ccc([N+](=O)[O-])cc3)[nH]c3ccccc23)cc1` were 4.95, more than 50 µg/mL and more than 5.73.
The corresponding values for `O=S(=O)(NCCc1c(C(c2ccc(C(F)(F)F)cc2)c2[nH]c3ccccc3c2CCNS(=O)(=O)c2ccc(C(F)(F)F)cc2)[nH]c2ccccc12)c1ccc(C(F)(F)F)cc1` are 5.64, more than 50 µg/mL and more than 24.4.
Regarding `CCn1c2ccccc2c2ccc(C(c3[nH]c4ccccc4c3CCNS(=O)(=O)c3ccc(Cl)cc3)c3[nH]c4ccccc4c3CCNS(=O)(=O)c3ccc(Cl)cc3)cc21`, the pIC50 at Aromatase [1] is 5.41. In the series with Vero, this molecule returned an IC50 of more than 50 µg/mL. Further, the selectivity ratio in the series with aromatase [2] is more than 14.7.
With `N#Cc1ccc(C(c2[nH]c3ccccc3c2CCNS(=O)(=O)c2ccc(C(F)(F)F)cc2)c2[nH]c3ccccc3c2CCNS(=O)(=O)c2ccc(C(F)(F)F)cc2)cc1`, the negative logarithm of the IC50 (pIC50) at Aromatase [1] was 4.82. This molecule displayed a half-inhibitory concentration (IC50) with Vero of more than 50 µg/mL. Also, in the series with aromatase [2], the selectivity ratio is more than 3.85.
As to `Cc1c2ccncc2c(C)c2c1[nH]c1ccccc12` [ELLIPTECINE], in the series on Vero, the pIC50 is 5.71.
Take `O=S(=O)(NCCc1c(C(c2ccc(C(F)(F)F)cc2)c2[nH]c3ccccc3c2CCNS(=O)(=O)c2ccc(Br)cc2)[nH]c2ccccc12)c1ccc(Br)cc1`: the pIC50 on Aromatase [1] was 5.42. The IC50 with Vero was more than 50 µg/mL. For the same molecule, the selectivity ratio in the series with aromatase [2] is more than 14.4.
Turning to `COc1ccc(S(=O)(=O)NCCc2c(C(c3ccccc3)c3[nH]c4ccccc4c3CCNS(=O)(=O)c3ccc(OC)cc3)[nH]c3ccccc23)cc1`, the pIC50 at Aromatase [1] is 5.46. This molecule also showed an IC50 with Vero of more than 50 µg/mL. The selectivity ratio with aromatase [2] was more than 19.1.
Regarding `O=[N+]([O-])c1ccc(C(c2[nH]c3ccccc3c2CCNS(=O)(=O)c2ccc(C(F)(F)F)cc2)c2[nH]c3ccccc3c2CCNS(=O)(=O)c2ccc(C(F)(F)F)cc2)cc1`, at Aromatase [1], the pIC50 was 5.40. In addition, the IC50 in the series on Vero was more than 50 µg/mL. Moreover, the selectivity ratio with aromatase [2] was more than 14.4.
With `O=S(=O)(NCCc1c(C(c2ccc(O)cc2)c2[nH]c3ccccc3c2CCNS(=O)(=O)c2ccc(C(F)(F)F)cc2)[nH]c2ccccc12)c1ccc(C(F)(F)F)cc1`, the figures for the pIC50 on Aromatase [1] and in the series on Vero were 5.89 and 4.88, respectively. For the same molecule, the selectivity ratio in the series with aromatase [2] turned out to be 10.2.
For `O=S(=O)(NCCc1c(C(c2ccc(F)cc2)c2[nH]c3ccccc3c2CCNS(=O)(=O)c2ccc(Br)cc2)[nH]c2ccccc12)c1ccc(Br)cc1`, at Aromatase [1], the negative-log IC50 (pIC50) was 5.12. The IC50 in the series on Vero is more than 50 µg/mL. For the same molecule, in the series with aromatase [2], the selectivity ratio was more than 7.61.
As for `O=S(=O)(NCCc1c(C(c2ccc(F)cc2)c2[nH]c3ccccc3c2CCNS(=O)(=O)c2ccc(Cl)cc2)[nH]c2ccccc12)c1ccc(Cl)cc1`, on Aromatase [1], the pIC50 is 5.27. Further, the 50% inhibitory concentration (IC50) with Vero is more than 50 µg/mL. In addition, the selectivity ratio with aromatase [2] is more than 11.9.
The corresponding values for `O=S(=O)(NCCc1c(C(c2ccccc2O)c2[nH]c3ccccc3c2CCNS(=O)(=O)c2ccc(Cl)cc2)[nH]c2ccccc12)c1ccc(Cl)cc1` are 5.38, more than 50 µg/mL and more than 15.4.
With `O=S(=O)(NCCc1c(C(c2ccc(Br)cc2)c2[nH]c3ccccc3c2CCNS(=O)(=O)c2ccc(Cl)cc2)[nH]c2ccccc12)c1ccc(Cl)cc1`, the figures for the pIC50 at Aromatase [1] and with Vero were 5.57 and 4.35, respectively. Also, the selectivity ratio in the series on aromatase [2] stood at 16.6.
As for `N#Cc1ccc(C(c2[nH]c3ccccc3c2CCNS(=O)(=O)c2ccc(Cl)cc2)c2[nH]c3ccccc3c2CCNS(=O)(=O)c2ccc(Cl)cc2)cc1`, on Aromatase [1], the negative logarithm of the IC50 (pIC50) is 5.26. The same molecule registered an IC50 in the series with Vero of more than 50 µg/mL. In the series on aromatase [2], the selectivity ratio is more than 11.6.
With `O=[N+]([O-])c1ccc(C(c2[nH]c3ccccc3c2CCNS(=O)(=O)c2ccc(Br)cc2)c2[nH]c3ccccc3c2CCNS(=O)(=O)c2ccc(Br)cc2)cc1`, the pIC50 at Aromatase [1] is 5.57. In addition, the half-maximal inhibitory concentration (IC50) with Vero was more than 50 µg/mL. For the same molecule, the selectivity ratio in the series on aromatase [2] is more than 20.8.
The corresponding values for `N#Cc1ccc(C(c2[nH]c3ccccc3c2CCNS(=O)(=O)c2ccc(F)cc2)c2[nH]c3ccccc3c2CCNS(=O)(=O)c2ccc(F)cc2)cc1` are 5.01, more than 50 µg/mL and more than 6.8.
Consider `O=S(=O)(NCCc1c(C(c2ccc(Br)cc2)c2[nH]c3ccccc3c2CCNS(=O)(=O)c2ccc(C(F)(F)F)cc2)[nH]c2ccccc12)c1ccc(C(F)(F)F)cc1`, for which the pIC50 on Aromatase [1] is 5.47; in the series with Vero it was 4.61. The selectivity ratio with aromatase [2] is 7.3.
On to `O=[N+]([O-])c1cccc(S(=O)(=O)NCCc2c(C(c3ccc(O)cc3)c3[nH]c4ccccc4c3CCNS(=O)(=O)c3cccc([N+](=O)[O-])c3)[nH]c3ccccc23)c1`, for which, on Aromatase [1], the pIC50 is 5.64. In the series with Vero, this molecule came in with an IC50 of more than 50 µg/mL. In addition, the selectivity ratio in the series with aromatase [2] is more than 27.4.
`O=S(=O)(NCCc1c(C(c2ccc(O)cc2)c2[nH]c3ccccc3c2CCNS(=O)(=O)c2ccc(Cl)cc2)[nH]c2ccccc12)c1ccc(Cl)cc1`: the pIC50 on Aromatase [1] is 5.85; with Vero it was 4.82. Also, the selectivity ratio with aromatase [2] came to 10.7.
The corresponding values for `O=S(=O)(NCCc1c(C(c2ccc(F)cc2)c2[nH]c3ccccc3c2CCNS(=O)(=O)c2ccc(C(F)(F)F)cc2)[nH]c2ccccc12)c1ccc(C(F)(F)F)cc1` are 5.36, 4.82 and 3.42.
As for `O=C1Nc2ccccc2C1(c1[nH]c2ccccc2c1CCNS(=O)(=O)c1cccc([N+](=O)[O-])c1)c1[nH]c2ccccc2c1CCNS(=O)(=O)c1cccc([N+](=O)[O-])c1`, the negative-log IC50 (pIC50) on Aromatase [1] was 4.92. In the series on Vero, this molecule came in with an IC50 of more than 50 µg/mL. In the series with aromatase [2], the selectivity ratio was more than 5.13.
For the molecule `O=S(=O)(NCCc1c(C(c2ccc3c(c2)Cc2ccccc2-3)c2[nH]c3ccccc3c2CCNS(=O)(=O)c2ccc(Cl)cc2)[nH]c2ccccc12)c1ccc(Cl)cc1`, the negative logarithm of the IC50 (pIC50) at Aromatase [1] was 5.06. For the same molecule, in the series on Vero, the 50% inhibitory concentration (IC50) was more than 50 µg/mL. Moreover, the selectivity ratio with aromatase [2] was more than 6.72.
Turning to `O=C1Nc2ccccc2C1(c1[nH]c2ccccc2c1CCNS(=O)(=O)c1ccccc1[N+](=O)[O-])c1[nH]c2ccccc2c1CCNS(=O)(=O)c1ccccc1[N+](=O)[O-]`, on Aromatase [1], the negative-log IC50 (pIC50) is 5.01. Further, the half-inhibitory concentration (IC50) with Vero was more than 50 µg/mL. Also, in the series with aromatase [2], the selectivity ratio was more than 6.22.
As to `O=[N+]([O-])c1ccccc1S(=O)(=O)NCCc1c(C(c2ccccc2O)c2[nH]c3ccccc3c2CCNS(=O)(=O)c2ccccc2[N+](=O)[O-])[nH]c2ccccc12`, the negative-log IC50 (pIC50) at Aromatase [1] is 5.34. This molecule registered a concentration for half-maximal inhibition (IC50) with Vero of more than 50 µg/mL. Moreover, the selectivity ratio in the series with aromatase [2] was more than 13.7.
As to `Cc1ccc(S(=O)(=O)NCCc2c(C(c3ccccc3O)c3[nH]c4ccccc4c3CCNS(=O)(=O)c3ccc(C)cc3)[nH]c3ccccc23)cc1`, the pIC50 is 5.39 at Aromatase [1] and 4.83 in the series with Vero. For the same molecule, the selectivity ratio in the series on aromatase [2] turned out to be 3.6.
